“Also recorded” adds a separate entry of the source.
What was measured:
[1] = target: T1, telomerase activity in crude HeLa cell extracts (Homo sapiens, UniProt O14746); test: TRAP assay in crude HeLa cell extracts; format: biochemical
T1 construct: telomerase activity in crude HeLa cell extracts; endogenous in cells; host or cells: HeLa
Description: As a control, we observed no inhibition of the Taq polymerase used for amplification of telomerase extension products in the TRAP (data not shown). In addition, as negative controls, two other compounds that were not identified as hits (SPB03922 and RH00646) were tested and confirmed to exert no effect upon telomerase activity in vitro (Figure 3B). Using a semiquantitative assay for the detection of telomerase elongation products (ELISA-TRAP) the in vitro half maximal inhibitory concentration (IC50) values of the compounds fell between 1 and 6.5 μM (Figures 3C and 3D). Similar IC50 values were also observed against purified recombinant murine telomerase (data not shown). These values are higher than that of BIBR1532 (IC50 = 0.1 μM) ([Damm et al., 2001]; [Pascolo et al., 2002]) but within a concentration range typical of first hits from commercial libraries. SEW05920, SPB03924, and CD11359 are heteroaromatic small molecules that differ structurally from BIBR1532 (Figures 3A and S2F).
Supplemental Experimental Procedures
Follow-up analysis of compounds identified in HTS
From the high-throughput analysis, 51 compounds with a neutral effect or that rescued the growth of strains expressing active human telomerase (relative to DMSO) were picked from the master HTS plates and re-analyzed (Figure 2C, and data not shown). These compounds were tested on a control strain, W303-1a expressing hTR and Cdc13-hTERT lacking the Cdc13 DBD, and 7 compounds were excluded from further analysis because they elicited a non-specific growth delay of the control strain. The remaining 44 compounds were subjected to secondary screens against the query strain expressing active human telomerase (n=2). Based on these results, twenty-eight compounds were purchased for further verification against the control and […]
(§1) Telomerase activity was assessed using the Telomere Repeat Amplification Protocol (TRAPeze, Millipore) or ELISA-TRAP (TeloTAGGG Telomerase PCR ELISA-PLUS, Roche Diagnostics) following manufacturers’ instructions. […]

[2] = tested on: W303-1a cells expressing Cdc13-hTERT-FLAG + hTR (active human telomerase); test: Yeast growth rescue screen (time to reach OD595 of 0.62 relative to DMSO); format: cell-based, S. cerevisiae; conditions: for Z Score: z = (x − μ)/σ of normalized time difference over all compounds in the bioactive library
Description: These 678 compounds were selected from a 50,000 member Maybridge library based upon a spectrum of growth inhibitory bioactivity in a drug pump-deficient yeast strain ([Ishizaki et al., 2010]). […] In each 96-well assay plate, growth of the query strain in the presence of compound (20 μM), beginning at the onset of the experimental growth phase (i.e., time course 2, from 43 hr onward), was normalized against DMSO treatment (Figures 2C and 2D; Figures S2D and S2E).
To conduct the HTS (Figure 2A), 98 μl (3 × 10^5 cells per milliliter) was dispensed into 96-well clear flat-bottomed microplates (Corning Costar) using a Biomek FX (Beckman Coulter). A small molecule bioactive library of 678 compounds was utilized for the screen, consisting of compounds selected from the Maybridge collection (Thermo Fisher Scientific). […] DMSO at 2% (v/v) and 20 μM cycloheximide (Sigma) final concentration were added as controls to each assay plate, into alternate wells in columns 1 and 12 using the Span 8 module of the Biomek FX. Nine plates were analyzed, 80 compounds per plate, with 16 wells for controls. After compound addition, the plates were sealed and followed for time course 1 (up to 39 hr) on a Sunrise plate reader (Tecan) at absorbance 595 nm, maintained at 30°C and shaking at 564 rpm. After time course 1, cells in assay plates were diluted to 3 × 10^5 cells per milliliter in fresh media containing galactose using the Biomek FX. The plates were preincubated in galactose-containing media at 30°C for 3 hr (to allow a period of recovery from the stationary phase in the absence of compound), 2 μl of each compound or control was added to plates as described earlier, returned to the plate readers, and followed for time course 2 (up to 86 hr), for a total of ∼128 elapsed hours.
Growth curves were analyzed using a growth curve analysis tool implemented in R. After smoothing of growth curves, the time required for cells induced with human telomerase to reach an OD595 of 0.62 in the presence of each compound during time course 2 was derived using a data-based approach ([Warringer and Blomberg, 2003]). The time to reach an OD595 of 0.62 for each compound was normalized to the average DMSO value from each assay plate (to arrive at a normalized value, x, for each compound) and used to generate heatmaps as shown in Figure 2C. Z scores were calculated based on the equation: z = (x − μ)/σ, where μ is the mean time difference for all compounds in the bioactive library and σ is the SD for all compounds in the bioactive library.

[3] = target: T2, purified recombinant human telomerase (Homo sapiens, UniProt O14746); test: Telomerase repeat amplification protocol (TRAP) assay, purified enzyme; format: biochemical; conditions: 200, 100, 20, 10 or 2 μM; 15 min preincubation
T2 construct: made in house
Description: Figure 3 Assessment of Human Telomerase Inhibition In Vitro (A) Chemical structures of BIBR1532 and hit compounds SEW05920, SPB03924, and CD11359. (B) Representative gel of the telomerase repeat addition protocol (TRAPeze, Millipore) after addition of RJC00417, SEW05920, SPB03922, and RH00646 to recombinant human telomerase purified in vitro ([Beattie et al., 1998]; [Oulton and Harrington, 2004]) (n = 3). Lanes 1–5, treatment with 200, 100, 20, 10, or 2 μM RJC00417; lanes 6–10, treatment with 200, 100, 20, 10, or 2 μM SEW05920; lanes 11–15, treatment with 200, 100, 20, 10, or 2 μM SPB03922; lanes 16–20, treatment with 200, 100, 20, 10, or 2 μM RH00646; lane 21, treatment with 2% v/v DMSO; lane 22, pretreatment with ribonuclease A. IC; internal PCR control (36 base pairs [bp]). (C) Representative gel of the relative telomerase activity (RTA) by ELISA-TRAP (TeloTAGGG Telomerase PCR ELISA-PLUS, Roche Diagnostics) of purified human telomerase upon incubation with BIBR1532 (lanes 1–4), SEW05920 (lanes 5–8), SPB03924 (lanes 11–14), CD11359 (lanes 15–18) (concentration indicated in micromolar), 2% v/v DMSO (lane 9), or heat (lane 10). IC; internal PCR control (216 bp). (D) Levels of RTA (%) after normalization to a 216 bp internal control, as shown in (C). Error bars indicate SD, n = 3. For synthesis of BIBR1532, see Figure S2.
As a control, we observed no inhibition of the Taq polymerase used for amplification of telomerase extension products in the TRAP (data not shown). […]
From the high-throughput analysis, 51 compounds with a neutral effect or that rescued the growth of strains expressing active human telomerase (relative to DMSO) were picked from the master HTS plates and re-analyzed (Figure 2C, and data not shown). […]
as §1

[4] = target: purified human telomerase; parameters: method as in Damm et al., 2001; Pascolo et al., 2002; conditions: human telomerase in vitro; ref Damm et al., 2001; Pascolo et al., 2002; cited from earlier work
pdr1DBD-cyc8 strain = test: Growth of hyperpermeable yeast strain; conditions: 0.03-1 μM, irrespective of human telomerase expression status
W303-1a control strains = test: Growth of control yeast strains; format: cell-based, S. cerevisiae; conditions: W303-1a cells alone; 500, 150, 50, 10 or 1 μM

T1 sequence (O14746 whole entry): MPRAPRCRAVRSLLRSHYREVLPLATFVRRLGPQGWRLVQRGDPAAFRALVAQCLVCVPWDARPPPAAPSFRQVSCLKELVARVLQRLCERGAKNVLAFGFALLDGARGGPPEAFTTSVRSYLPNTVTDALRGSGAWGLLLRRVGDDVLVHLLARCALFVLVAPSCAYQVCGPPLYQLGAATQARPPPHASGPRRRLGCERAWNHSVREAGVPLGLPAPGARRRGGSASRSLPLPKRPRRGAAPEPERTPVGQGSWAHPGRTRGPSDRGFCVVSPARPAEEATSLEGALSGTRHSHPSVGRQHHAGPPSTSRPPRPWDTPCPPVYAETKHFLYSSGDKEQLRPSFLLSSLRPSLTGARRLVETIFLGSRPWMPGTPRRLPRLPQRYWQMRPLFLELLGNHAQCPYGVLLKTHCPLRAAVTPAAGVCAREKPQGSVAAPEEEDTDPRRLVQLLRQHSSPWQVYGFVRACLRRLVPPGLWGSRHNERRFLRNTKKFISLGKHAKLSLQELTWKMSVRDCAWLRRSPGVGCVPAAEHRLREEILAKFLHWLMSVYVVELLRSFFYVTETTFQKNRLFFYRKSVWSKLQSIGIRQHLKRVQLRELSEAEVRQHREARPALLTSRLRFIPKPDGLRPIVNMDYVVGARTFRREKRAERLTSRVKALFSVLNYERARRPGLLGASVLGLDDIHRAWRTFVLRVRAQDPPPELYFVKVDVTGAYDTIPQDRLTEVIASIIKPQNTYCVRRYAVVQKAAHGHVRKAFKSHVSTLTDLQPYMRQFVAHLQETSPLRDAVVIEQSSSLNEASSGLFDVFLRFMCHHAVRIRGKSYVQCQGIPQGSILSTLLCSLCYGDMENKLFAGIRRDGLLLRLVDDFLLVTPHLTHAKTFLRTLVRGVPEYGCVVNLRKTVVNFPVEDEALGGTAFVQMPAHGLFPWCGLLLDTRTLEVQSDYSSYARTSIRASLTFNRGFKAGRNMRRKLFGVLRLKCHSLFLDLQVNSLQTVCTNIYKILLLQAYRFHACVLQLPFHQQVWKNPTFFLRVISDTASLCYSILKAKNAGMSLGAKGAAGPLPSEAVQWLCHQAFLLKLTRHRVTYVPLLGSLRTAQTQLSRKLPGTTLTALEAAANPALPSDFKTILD
T1 sequence (O60832 whole entry partner): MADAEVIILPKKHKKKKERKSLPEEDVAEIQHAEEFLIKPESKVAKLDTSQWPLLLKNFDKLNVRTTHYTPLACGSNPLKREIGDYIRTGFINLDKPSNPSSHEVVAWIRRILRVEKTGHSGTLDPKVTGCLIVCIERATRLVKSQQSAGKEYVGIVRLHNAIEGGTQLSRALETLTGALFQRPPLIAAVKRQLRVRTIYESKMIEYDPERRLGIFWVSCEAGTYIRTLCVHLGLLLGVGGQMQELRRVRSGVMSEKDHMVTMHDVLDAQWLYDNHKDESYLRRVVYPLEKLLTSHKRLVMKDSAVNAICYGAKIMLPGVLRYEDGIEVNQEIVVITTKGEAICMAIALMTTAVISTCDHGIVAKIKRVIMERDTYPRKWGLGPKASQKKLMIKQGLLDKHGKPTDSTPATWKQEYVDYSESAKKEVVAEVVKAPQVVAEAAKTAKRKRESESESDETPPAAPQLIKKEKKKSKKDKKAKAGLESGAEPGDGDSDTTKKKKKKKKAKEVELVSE
T1 sequence (Q9NPE3 whole entry partner): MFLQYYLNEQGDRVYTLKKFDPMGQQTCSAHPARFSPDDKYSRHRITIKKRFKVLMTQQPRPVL
T1 sequence (Q9NX24 whole entry partner): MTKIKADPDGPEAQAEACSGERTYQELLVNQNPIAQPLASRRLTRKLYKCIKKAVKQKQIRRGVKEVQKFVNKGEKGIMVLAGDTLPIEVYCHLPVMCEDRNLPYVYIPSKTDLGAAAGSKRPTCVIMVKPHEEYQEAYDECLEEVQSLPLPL
T1 sequence (Q9NY12 whole entry partner): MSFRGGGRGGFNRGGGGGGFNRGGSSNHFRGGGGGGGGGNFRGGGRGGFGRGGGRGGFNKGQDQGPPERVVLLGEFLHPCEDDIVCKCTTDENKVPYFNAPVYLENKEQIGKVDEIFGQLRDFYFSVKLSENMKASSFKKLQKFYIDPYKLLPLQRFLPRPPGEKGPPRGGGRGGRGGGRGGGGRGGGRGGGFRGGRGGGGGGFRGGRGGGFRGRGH
T1 sequence (Q9BUR4 whole entry partner): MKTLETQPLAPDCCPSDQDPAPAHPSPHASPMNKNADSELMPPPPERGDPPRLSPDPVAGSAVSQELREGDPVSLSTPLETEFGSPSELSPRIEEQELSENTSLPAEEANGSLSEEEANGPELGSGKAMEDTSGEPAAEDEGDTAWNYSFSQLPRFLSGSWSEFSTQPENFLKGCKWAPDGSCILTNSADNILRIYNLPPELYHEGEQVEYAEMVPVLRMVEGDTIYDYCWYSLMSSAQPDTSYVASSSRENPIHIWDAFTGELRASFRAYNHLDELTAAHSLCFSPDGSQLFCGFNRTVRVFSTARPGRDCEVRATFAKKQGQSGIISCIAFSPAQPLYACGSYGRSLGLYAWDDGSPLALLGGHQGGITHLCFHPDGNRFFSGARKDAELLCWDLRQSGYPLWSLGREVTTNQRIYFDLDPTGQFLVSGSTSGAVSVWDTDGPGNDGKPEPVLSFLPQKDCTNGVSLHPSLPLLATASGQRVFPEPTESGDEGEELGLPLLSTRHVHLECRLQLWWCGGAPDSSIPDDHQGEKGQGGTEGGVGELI
T2 sequence (O14746 whole entry): as the sequence (O14746 whole entry) above

Cc1ccc(S(=O)(=O)NC(=O)Nc2ccc(Sc3ccccc3)nc2Sc2ccccc2)cc1 [SEW05920]
inhibition of telomerase activity in crude HeLa cell extracts (TRAP) [1]: dose-dependent inhibition
growth recovery in follow-up screens ([2]; follow-up subscreens, re-plated from master HTS plate and repurchased compound): ~8 h
growth recovery in the initial HTS ([2]; initial HTS, 20 μM): did not exhibit significant growth recovery
Z Score [2]: 1.7
inhibition of purified recombinant human telomerase (TRAP) [3]: inhibited telomerase activity in vitro; also recorded: dose-dependent inhibition

Cc1cc(C(=O)O/N=C(\N)CSc2ncccc2C(F)(F)F)no1 [SPB03924]
inhibition of telomerase activity in crude HeLa cell extracts (TRAP) [1]: dose-dependent inhibition
Time (hr) Difference at an OD595 of 0.62 Relative to DMSO ([2]; compound 20 μM, time course 2, growth rescue of strain expressing active human telomerase): 12 h
Z Score [2]: 2.3
inhibition of purified recombinant human telomerase (TRAP) [3]: dose-dependent inhibition

N=C(N)Nc1nc(-c2cc(Cl)sc2Cl)cs1 [CD11359]
inhibition of telomerase activity in crude HeLa cell extracts (TRAP) [1]: dose-dependent inhibition
Z Score [2]: 1.7
inhibition of purified recombinant human telomerase (TRAP) [3]: dose-dependent inhibition

C/C(=C\C(=O)Nc1ccccc1C(=O)O)c1ccc2ccccc2c1 [BIBR1532, 2-[(E)-3-naphthalen-2-yl-but-2-enoylamino]-benzoic acid]
IC50 [4]: 100 nM
toxicity in hyperpermeable strain pdr1DBD-cyc8 (pdr1DBD-cyc8 strain): toxic; also recorded: cytotoxic across most concentrations
effect upon growth of yeast expressing human telomerase ([2]; 500, 150, 50, 10 or 1 μM): had no effect
effect upon growth of control strains (W303-1a control strains): had no effect

Source: paper PMC3650558, “A Yeast Chemical Genetic Screen Identifies Inhibitors of Human Telomerase” (Chemistry & Biology, 2013)
